Results from article doi:10.1101/2024.07.04.602053v1, “Evidence for low affinity of GABA at the vesicular monoamine transporter VMAT2 – implications for transmitter co-release from dopamine neurons” (biorxiv, 2024).
pIC50: −log10 of the molar value.

Molecular target: T1, human VMAT2-eGFP (HEK-293-VMAT2:eGFP) (Homo sapiens, UniProt Q05940)
T1 construct: gene SLC18A2
Test: inhibition of [3H]dopamine uptake, digitonin-permeabilized cells
Format: cell-based

T1 sequence (Q05940 whole entry): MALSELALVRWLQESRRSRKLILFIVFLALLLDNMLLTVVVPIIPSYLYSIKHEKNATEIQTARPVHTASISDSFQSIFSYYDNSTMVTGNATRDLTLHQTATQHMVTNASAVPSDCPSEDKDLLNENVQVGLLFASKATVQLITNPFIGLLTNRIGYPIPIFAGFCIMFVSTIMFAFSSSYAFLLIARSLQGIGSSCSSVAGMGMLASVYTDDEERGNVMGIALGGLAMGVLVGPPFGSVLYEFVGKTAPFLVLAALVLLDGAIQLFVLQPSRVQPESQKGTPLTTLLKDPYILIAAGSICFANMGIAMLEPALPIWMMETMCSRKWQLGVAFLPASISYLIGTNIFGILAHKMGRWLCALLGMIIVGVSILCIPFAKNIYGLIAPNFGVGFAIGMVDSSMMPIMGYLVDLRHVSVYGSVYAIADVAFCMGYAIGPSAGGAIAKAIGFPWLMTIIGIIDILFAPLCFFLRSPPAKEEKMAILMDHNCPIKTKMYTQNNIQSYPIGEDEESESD

SMILES	pIC50
NCCc1ccc(O)c(O)c1 [dopamine]	5.31
COc1cc2c(cc1OC)C1CC(=O)C(CC(C)C)CN1CC2 (centres unmarked) [tetrabenazine]	7.54
